For orientation: IC50 means the concentration needed to halve the response being measured.

The experiment concerns HEK293 NOD2/MDP-induced NF-kB reporter, inhibition. As to the kind of experiment: NOD2 signaling inhibitors, analog potency, SAR follow-up, cell-based, set 3 (AID 2799).

Turning to `CCCCn1c(SCC(=O)Nc2nnc(CC)s2)nc2c1c(=O)n(C)c(=O)n2C`, the IC50 was 7.12 µM.

Source of the values: PubChem BioAssay AID2799 (Sanford-Burnham Center for Chemical Genomics, 2010).
